Results from the supplement of paper PMC11061612.

Tests used:
RH-18 (Rhabdomyosarcoma) [1] = assay: Bliss excess, mean over the matrix (fraction); higher = more synergy
In short: (§1)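 Cell lines grown in DMEM/F12 or RPMI with 10% FBS were plated in 1536-well plates and held 24 hours at 37°C, 5% CO2 before 72 hours of exposure to two-drug dose matrices, with DMSO typically at 0.2%. CellTiter-Glo 2.0 luminescence gave viability, which was converted to inhibition. Vehicle wells were set to 0 and blank wells to 1. Combination Emax is the second-highest inhibition in the matrix, and Bliss excess is the observed combination effect minus the expected EA + EB − EA·EB, where EA and EB are the single-agent effects.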

SIMA (Neuroblastoma) [2] = assay: as above
In short: as §1

[3] = system: CAPAN-1 (Pancreatic Carcinoma); assay: combination Emax (second highest fraction inhibited in the dose matrix, 72 h); higher = more inhibition; extreme values may be limits of the assay
In short: as §1

[4] = system: EN (Endometrial Carcinoma); assay: as above
In short: as §1

HMV-II (Melanoma) = assay: as above
In short: as §1

Mewo (Melanoma) = assay: as above
In short: as §1

[5] = system: NCI-H747 (Colorectal Carcinoma); assay: as above
In short: as §1

RH-18 (Rhabdomyosarcoma) [6] = assay: as above
In short: as §1

[7] = system: RKO (Colorectal Carcinoma); assay: as above
In short: as §1

[8] = system: RPMI-6666 (Non-Cancerous); assay: as above
In short: as §1

SIMA (Neuroblastoma) [9] = assay: as above
In short: as §1

[10] = system: UMC-11 (Other Solid Carcinomas); assay: as above
In short: as §1
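Wherever Bliss excess, mean over the matrix is given: after 72 h of two-drug dosing.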

SMILES | Bliss excess (RH-18 (Rhabdomyosarcoma) [1]) | Bliss excess (SIMA (Neuroblastoma) [2]) | combination Emax [3] | combination Emax [4] | combination Emax (HMV-II (Melanoma)) | combination Emax (Mewo (Melanoma)) | combination Emax [5] | combination Emax (RH-18 (Rhabdomyosarcoma) [6]) | combination Emax [7] | combination Emax [8] | combination Emax (SIMA (Neuroblastoma) [9]) | combination Emax [10]
COc1cccc(OCCCN)c1-c1cc(Nc2cnc(C#N)cn2)n[nH]1 [Prexasertib] + O=C(c1cc(Cc2n[nH]c(=O)c3ccccc23)ccc1F)N1CCN(C(=O)C2CC2)CC1 [Olaparib] (first compound max 1 µM, 7x7, partner max 10 µM) | -0.0295 | -0.0728 | 0.595 | 0.726 | 0.533 | 0.505 | 0.422 | 0.327 | 0.874 | 0.959 | 0.97 | 0.902
CN(C)CCCOc1ccc(-c2ccc3ncc4c(c3c2)n(C2CCOCC2)c(=O)n4C)cn1 [AZD0156] + CCN(CCO)CCCOc1ccc2c(Nc3cc(CC(=O)Nc4cccc(F)c4)[nH]n3)ncnc2c1 [AZD2811] (first compound max 1 µM, 7x7, partner max 1 µM) | -0.0253 | -0.0085 | 0.137 | 0.494 | 0.164 | 0.153 | 0.167 | 0.136 | 0.213 | 0.551 | 0.131 | 0.758
COc1cccc(OCCCN)c1-c1cc(Nc2cnc(C#N)cn2)n[nH]1 [Prexasertib] + Cc1cc2ncnn2cc1Nc1ncc2c(n1)n(C1CCOCC1)c(=O)n2C [AZD7648] (first compound max 1 µM, 7x7, partner max 10 µM) | 0.0455 | -0.035 | 0.585 | 0.756 | 0.525 | 0.516 | 0.396 | 0.382 | 0.901 | 0.959 | 0.992 | 0.902
Cc1cc2ncnn2cc1Nc1ncc2c(n1)n(C1CCOCC1)c(=O)n2C [AZD7648] + C=CCn1c(=O)c2cnc(Nc3ccc(N4CCN(C)CC4)cc3)nc2n1-c1cccc(C(C)(C)O)n1 [AZD1775] (first compound max 10 µM, partner max 1 µM) | 0.0278 | 0.0406 | 0.5 | 0.662 | 0.521 | 0.427 | 0.55 | 0.426 | 0.678 | 0.892 | 0.941 | 0.424
CN(C)CCCOc1ccc(-c2ccc3ncc4c(c3c2)n(C2CCOCC2)c(=O)n4C)cn1 [AZD0156] + C[C@@H]1COCCN1C2=NC(=NC(=C2)C3(CC3)[S@](=N)(=O)C)C4=C5C=CNC5=NC=C4 [AZD6738] (first compound max 1 µM, 7x7, partner max 10 µM) | -0.0312 | 0.074 | 0.368 | 0.581 | 0.335 | 0.594 | 0.266 | 0.343 | 0.879 | 0.861 | 0.9 | 0.642
CCc1c2c(nc3ccc(O)cc13)-c1cc3c(c(=O)n1C2)COC(=O)[C@]3(O)CC [SN-38] + CN(C)CCCOc1ccc(-c2ccc3ncc4c(c3c2)n(C2CCOCC2)c(=O)n4C)cn1 [AZD0156] (first compound max 0.3 µM, 7x7, partner max 1 µM) | -0.0477 | -0.0753 | 0.781 | 0.157 | 0.587 | 0.248 | 0.408 | 0.459 | 0.91 | 0.947 | 0.907 | 0.303
